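Following 48 hours of exposure in 96-well plates, responses at five concentrations were used to interpolate endpoints linearly. GI50: concentration for 50% inhibition of growth.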 Active and inactive are the calls of the source. Rule as the data show it: active = GI50 up to about 1.1 µM and inactive = higher.
Legend:
Assay in all cases: NCI anticancer screen, dose series, 48 h
Malme-3M = tested on: Malme-3M
HOP-92 = tested on: HOP-92
CCRF-CEM = tested on: CCRF-CEM
IGROV-1 = tested on: IGROV-1
HT-29 = tested on: HT-29
KM12 = tested on: KM12
SF-268 = tested on: SF-268
RXF 393 = tested on: RXF 393
COLO 205 = tested on: COLO 205
SK-MEL-5 = tested on: SK-MEL-5
U-251 = tested on: U-251
OVCAR-3 = tested on: OVCAR-3
EKVX = tested on: EKVX
HCC 2998 = tested on: HCC 2998

**Q.** Which results are given for `O=c1c2ccccc2nc(-c2ccccc2)n1NC(=S)Nc1cccc(Cl)c1`?
**A.** GI50 (Malme-3M): > 100 µM (inactive); GI50 (HOP-92): 31.8 µM (inactive); GI50 (CCRF-CEM): > 100 µM (inactive); GI50 (IGROV-1): > 100 µM (inactive); GI50 (HT-29): > 100 µM (inactive); GI50 (KM12): > 100 µM (inactive); GI50 (SF-268): 43.7 µM (inactive); GI50 (RXF 393): 27.2 µM (inactive); GI50 (COLO 205): > 100 µM (inactive); GI50 (SK-MEL-5): > 100 µM (inactive); GI50 (U-251): 43.8 µM (inactive)

**Q.** How did the GI50 (Malme-3M) turn out when `CC1(C)OC(=O)C(C#N)=C1/C=C/c1coc2ccc(Cl)cc2c1=O` was run?
**A.** 26.2 µM (inactive)

**Q.** And the GI50 (CCRF-CEM)?
**A.** 17.7 µM (inactive)

**Q.** What about the GI50 (IGROV-1) of the same compound?
**A.** 58.3 µM (inactive)

**Q.** What about the GI50 (OVCAR-3) of the same compound?
**A.** 18.4 µM (inactive)

**Q.** What about the GI50 (HT-29) of the same compound?
**A.** > 10 µM (inactive)

**Q.** And the GI50 (KM12)?
**A.** 41.3 µM (inactive)

**Q.** What about the GI50 (SF-268) of the same compound?
**A.** 29.5 µM (inactive)

**Q.** What about the GI50 (EKVX) of the same compound?
**A.** 47 µM (inactive)

**Q.** What about the GI50 (HCC 2998) of the same compound?
**A.** 34.8 µM (inactive)

**Q.** What about the GI50 (COLO 205) of the same compound?
**A.** 57.7 µM (inactive)

**Q.** And the GI50 (SK-MEL-5)?
**A.** 21.9 µM (inactive)

**Q.** What about the GI50 (U-251) of the same compound?
**A.** 34.4 µM (inactive)

**Q.** Which GI50 (Malme-3M) does the source give for `COc1cccc(NC(=O)CC(=O)N2NC(c3ccccc3)C(/N=N/c3cccc(C(=O)O)c3)C2=O)c1` (centres undefined) here?
**A.** > 100 µM (inactive)

**Q.** What about the GI50 (HOP-92) of the same compound?
**A.** > 100 µM (inactive)

**Q.** What about the GI50 (IGROV-1) of the same compound?
**A.** > 100 µM (inactive)

**Q.** What about the GI50 (OVCAR-3) of the same compound?
**A.** 38.2 µM (inactive)

**Q.** And the GI50 (HT-29)?
**A.** > 100 µM (inactive)

**Q.** And the GI50 (KM12)?
**A.** 39.4 µM (inactive)

**Q.** What about the GI50 (SF-268) of the same compound?
**A.** > 100 µM (inactive)

**Q.** What about the GI50 (RXF 393) of the same compound?
**A.** 49.5 µM (inactive)

**Q.** And the GI50 (EKVX)?
**A.** > 100 µM (inactive)

**Q.** What about the GI50 (HCC 2998) of the same compound?
**A.** > 100 µM (inactive)

**Q.** What about the GI50 (COLO 205) of the same compound?
**A.** > 10 µM (inactive)

**Q.** What about the GI50 (SK-MEL-5) of the same compound?
**A.** > 100 µM (inactive)

**Q.** What about the GI50 (U-251) of the same compound?
**A.** > 100 µM (inactive)

**Q.** Which results are given for `O=[N+]([O-])c1ccc(-c2ccc(-c3csc(Nc4ccccc4)n3)o2)cc1`?
**A.** GI50 (Malme-3M): 17 µM (inactive); GI50 (HOP-92): 19.5 µM (inactive); GI50 (CCRF-CEM): 2.93 µM (inactive); GI50 (IGROV-1): 25.1 µM (inactive); GI50 (OVCAR-3): 19.3 µM (inactive); GI50 (HT-29): 22.7 µM (inactive); GI50 (KM12): 19.3 µM (inactive); GI50 (SF-268): 18.2 µM (inactive); GI50 (EKVX): 19.1 µM (inactive); GI50 (HCC 2998): 25.1 µM (inactive); GI50 (COLO 205): 20.9 µM (inactive); GI50 (SK-MEL-5): 19.5 µM (inactive); GI50 (U-251): 19.6 µM (inactive)

**Q.** What does the source list for `[O-]c1c2c(nn1-c1ccc(Cl)cc1)c1ccccc1c[n+]2Cc1ccccc1`?
**A.** GI50 (Malme-3M): 45.4 µM (inactive); GI50 (CCRF-CEM): > 100 µM (inactive); GI50 (IGROV-1): 62.4 µM (inactive); GI50 (OVCAR-3): > 100 µM (inactive); GI50 (HT-29): > 100 µM (inactive); GI50 (KM12): > 100 µM (inactive); GI50 (SF-268): 95.3 µM (inactive); GI50 (RXF 393): 27 µM (inactive); GI50 (EKVX): > 100 µM (inactive); GI50 (HCC 2998): > 100 µM (inactive); GI50 (COLO 205): > 100 µM (inactive); GI50 (SK-MEL-5): 58.7 µM (inactive); GI50 (U-251): > 100 µM (inactive)

**Q.** How did the GI50 (Malme-3M) turn out when `COc1cc([C@@H]2c3cc4c(cc3[C@@H](NC(=O)c3ccc(C#N)cc3)C3COC(=O)[C@@H]32)OCO4)cc(OC)c1O` (some centres undefined) was run?
**A.** 0.355 µM (active)

**Q.** What about the GI50 (HOP-92) of the same compound?
**A.** 0.586 µM (active)

**Q.** And the GI50 (CCRF-CEM)?
**A.** 0.0803 µM (active)

**Q.** What about the GI50 (IGROV-1) of the same compound?
**A.** 0.191 µM (active)

**Q.** What about the GI50 (OVCAR-3) of the same compound?
**A.** 1.85 µM (inactive)

**Q.** What about the GI50 (HT-29) of the same compound?
**A.** 1.25 µM (inactive)

**Q.** And the GI50 (KM12)?
**A.** 1.02 µM (active)

**Q.** What about the GI50 (SF-268) of the same compound?
**A.** 0.847 µM (active)

**Q.** What about the GI50 (RXF 393) of the same compound?
**A.** 1.97 µM (inactive)

**Q.** And the GI50 (EKVX)?
**A.** 0.979 µM (active)

**Q.** What about the GI50 (HCC 2998) of the same compound?
**A.** 1.6 µM (inactive)

**Q.** And the GI50 (COLO 205)?
**A.** 2.94 µM (inactive)

**Q.** What about the GI50 (SK-MEL-5) of the same compound?
**A.** 0.743 µM (active)

**Q.** And the GI50 (U-251)?
**A.** 0.106 µM (active)

**Q.** How did the GI50 (Malme-3M) turn out when `O=C(Nc1ccc(Cl)c(C(F)(F)F)c1)C(=O)C(C(=O)/C=C/c1ccccc1)C1OC(=O)c2ccccc21` (centres undefined) was run?
**A.** > 100 µM (inactive)

**Q.** And the GI50 (HOP-92)?
**A.** > 100 µM (inactive)

**Q.** What about the GI50 (CCRF-CEM) of the same compound?
**A.** > 100 µM (inactive)

**Q.** And the GI50 (IGROV-1)?
**A.** > 100 µM (inactive)

**Q.** What about the GI50 (OVCAR-3) of the same compound?
**A.** > 100 µM (inactive)

**Q.** What about the GI50 (HT-29) of the same compound?
**A.** > 100 µM (inactive)

**Q.** And the GI50 (KM12)?
**A.** > 100 µM (inactive)

**Q.** And the GI50 (SF-268)?
**A.** > 100 µM (inactive)

**Q.** And the GI50 (RXF 393)?
**A.** 93.5 µM (inactive)

**Q.** What about the GI50 (EKVX) of the same compound?
**A.** > 100 µM (inactive)

**Q.** What about the GI50 (HCC 2998) of the same compound?
**A.** > 100 µM (inactive)

**Q.** What about the GI50 (COLO 205) of the same compound?
**A.** > 100 µM (inactive)

**Q.** What about the GI50 (U-251) of the same compound?
**A.** 51.9 µM (inactive)

**Q.** `CS/C(=C(\S)c1ccccc1)c1ccccc1` was tested. Which GI50 (Malme-3M) did it give?
**A.** > 100 µM (inactive)

**Q.** What about the GI50 (HOP-92) of the same compound?
**A.** > 100 µM (inactive)

**Q.** And the GI50 (IGROV-1)?
**A.** > 100 µM (inactive)

**Q.** What about the GI50 (OVCAR-3) of the same compound?
**A.** > 100 µM (inactive)

**Q.** And the GI50 (HT-29)?
**A.** > 100 µM (inactive)

**Q.** And the GI50 (KM12)?
**A.** > 100 µM (inactive)

**Q.** And the GI50 (SF-268)?
**A.** > 100 µM (inactive)

**Q.** What about the GI50 (RXF 393) of the same compound?
**A.** > 91.2 µM (inactive)

**Q.** What about the GI50 (EKVX) of the same compound?
**A.** > 100 µM (inactive)

**Q.** And the GI50 (HCC 2998)?
**A.** > 100 µM (inactive)

**Q.** What about the GI50 (COLO 205) of the same compound?
**A.** > 100 µM (inactive)

**Q.** And the GI50 (SK-MEL-5)?
**A.** > 100 µM (inactive)

**Q.** What about the GI50 (U-251) of the same compound?
**A.** > 100 µM (inactive)

**Q.** `c1ccc(N2CCN(CCN3CCc4c([nH]c5ccccc45)C3c3cccnc3)CC2)cc1` (centres undefined) was tested. Which GI50 (HOP-92) did it give?
**A.** 14.4 µM (inactive)

**Q.** And the GI50 (CCRF-CEM)?
**A.** > 100 µM (inactive)

**Q.** What about the GI50 (IGROV-1) of the same compound?
**A.** > 100 µM (inactive)

**Q.** And the GI50 (OVCAR-3)?
**A.** > 100 µM (inactive)

**Q.** And the GI50 (HT-29)?
**A.** > 100 µM (inactive)

**Q.** What about the GI50 (KM12) of the same compound?
**A.** > 100 µM (inactive)

**Q.** And the GI50 (SF-268)?
**A.** > 100 µM (inactive)

**Q.** And the GI50 (EKVX)?
**A.** > 100 µM (inactive)

**Q.** What about the GI50 (HCC 2998) of the same compound?
**A.** > 100 µM (inactive)

**Q.** And the GI50 (SK-MEL-5)?
**A.** > 100 µM (inactive)

**Q.** And the GI50 (U-251)?
**A.** > 100 µM (inactive)

**Q.** With `O=C(/C=N/c1ccccc1C(=O)[O-])c1cccs1.O=C(/C=N/c1ccccc1C(=O)[O-])c1cccs1.[Zn+2]` as the compound, how does the GI50 (Malme-3M) read?
**A.** > 10 µM (inactive)

**Q.** What about the GI50 (HOP-92) of the same compound?
**A.** 19.6 µM (inactive)

**Q.** What about the GI50 (CCRF-CEM) of the same compound?
**A.** 23.7 µM (inactive)

**Q.** What about the GI50 (IGROV-1) of the same compound?
**A.** 31.9 µM (inactive)

**Q.** And the GI50 (OVCAR-3)?
**A.** 15.4 µM (inactive)

**Q.** What about the GI50 (HT-29) of the same compound?
**A.** > 100 µM (inactive)

**Q.** And the GI50 (KM12)?
**A.** > 100 µM (inactive)

**Q.** What about the GI50 (SF-268) of the same compound?
**A.** 27.4 µM (inactive)

**Q.** And the GI50 (HCC 2998)?
**A.** > 10 µM (inactive)

**Q.** And the GI50 (COLO 205)?
**A.** > 100 µM (inactive)

**Q.** What about the GI50 (U-251) of the same compound?
**A.** 17.5 µM (inactive)

From ChEMBL document CHEMBL1201862, “PubChem BioAssay data set” (2004)
